Experimental data taken from the supplement of paper PMC10307832.

Experiments:
Experiment in all cases: relative viability (nuclei count vs DMSO), 5 days (fraction); higher = more cells survive
[1] = test system: 201T
How it was run: (§1)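 Relative viability is defined as nuclei in treated wells over nuclei in vehicle wells. Duplicate plates were run and medians reported. Lung cancer cell lines in 1536-well plates were dosed by pin tool one day after seeding, with one drug or with a fixed anchor-drug dose plus five library-drug doses (not always all listed) in √10 steps, and nuclei were counted after 5 days.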

[2] = test system: COR-L23
How it was run: as §1

[3] = test system: H3255
How it was run: as §1

[4] = test system: HARA
How it was run: as §1

[5] = test system: HCC-366
How it was run: as §1

[6] = test system: HCC-78
How it was run: as §1

[7] = test system: LU99A
How it was run: as §1

[8] = test system: NCI-H1650
How it was run: as §1

[9] = test system: NCI-H1651
How it was run: as §1

[10] = test system: NCI-H1755
How it was run: as §1

[11] = test system: NCI-H1793
How it was run: as §1

[12] = test system: NCI-H2085
How it was run: as §1

[13] = test system: NCI-H2087
How it was run: as §1

[14] = test system: NCI-H23
How it was run: as §1

[15] = test system: NCI-H3122
How it was run: as §1

[16] = test system: NCI-H322M
How it was run: as §1

[17] = test system: NCI-H358
How it was run: as §1

[18] = test system: NCI-H460
How it was run: as §1

[19] = test system: NCI-H522
How it was run: as §1

[20] = test system: NCI-H596
How it was run: as §1

[21] = test system: NCI-H650
How it was run: as §1

[22] = test system: PC-3 [JPC-3]
How it was run: as §1

[23] = test system: SK-LU-1
How it was run: as §1

## Cc1cn(-c2cc(NC(=O)c3ccc(C)c(Nc4nccc(-c5cccnc5)n4)c3)cc(C(F)(F)F)c2)cn1 [Nilotinib] + CC(=O)Nc1cccc(-n2c(=O)n(C3CC3)c(=O)c3c(Nc4ccc(I)cc4F)n(C)c(=O)c(C)c32)c1 [Trametinib] (partner 0.02 µM)
[1]; first compound 0.001 µM
  relative viability: 0.709
[1]; first compound 0.003162 µM
  relative viability: 0.749
[1]; first compound 0.01 µM
  relative viability: 0.739
[1]; first compound 0.03162 µM
  relative viability: 0.717
[1]; first compound 0.1 µM
  relative viability: 0.728
[2]; first compound 0.001 µM
  relative viability: 0.472
[2]; first compound 0.003162 µM
  relative viability: 0.419
[2]; first compound 0.01 µM
  relative viability: 0.384
[2]; first compound 0.03162 µM
  relative viability: 0.283
[2]; first compound 0.1 µM
  relative viability: 0.266
[3]; first compound 0.001 µM
  relative viability: 0.617
[3]; first compound 0.003162 µM
  relative viability: 0.582
[3]; first compound 0.03162 µM
  relative viability: 0.53
[3]; first compound 0.1 µM
  relative viability: 0.947
[4]; first compound 0.001 µM
  relative viability: 0.43
[4]; first compound 0.003162 µM
  relative viability: 0.468
[4]; first compound 0.01 µM
  relative viability: 0.522
[4]; first compound 0.03162 µM
  relative viability: 0.402
[4]; first compound 0.1 µM
  relative viability: 0.289
[5]; first compound 0.001 µM
  relative viability: 0.35
[5]; first compound 0.003162 µM
  relative viability: 0.361
[5]; first compound 0.01 µM
  relative viability: 0.327
[5]; first compound 0.03162 µM
  relative viability: 0.243
[5]; first compound 0.1 µM
  relative viability: 0.145
[6]; first compound 0.001 µM
  relative viability: 0.754
[6]; first compound 0.003162 µM
  relative viability: 0.597
[6]; first compound 0.01 µM
  relative viability: 0.956
[6]; first compound 0.03162 µM
  relative viability: 0.649
[6]; first compound 0.1 µM
  relative viability: 0.863
[7]; first compound 0.001 µM
  relative viability: 0.31
[7]; first compound 0.003162 µM
  relative viability: 0.328
[7]; first compound 0.01 µM
  relative viability: 0.332
[7]; first compound 0.03162 µM
  relative viability: 0.296
[7]; first compound 0.1 µM
  relative viability: 0.242
[8]; first compound 0.001 µM
  relative viability: 0.608
[8]; first compound 0.003162 µM
  relative viability: 0.735
[8]; first compound 0.01 µM
  relative viability: 0.531
[8]; first compound 0.03162 µM
  relative viability: 0.471
[8]; first compound 0.1 µM
  relative viability: 0.327
[9]; first compound 0.001 µM
  relative viability: 0.828
[9]; first compound 0.003162 µM
  relative viability: 0.916
[9]; first compound 0.01 µM
  relative viability: 0.951
[9]; first compound 0.03162 µM
  relative viability: 0.761
[9]; first compound 0.1 µM
  relative viability: 0.851
[10]; first compound 0.001 µM
  relative viability: 0.745
[10]; first compound 0.003162 µM
  relative viability: 0.806
[10]; first compound 0.01 µM
  relative viability: 0.699
[10]; first compound 0.03162 µM
  relative viability: 0.64
[10]; first compound 0.1 µM
  relative viability: 0.556
[11]; first compound 0.001 µM
  relative viability: 0.403
[11]; first compound 0.003162 µM
  relative viability: 0.396
[11]; first compound 0.01 µM
  relative viability: 0.328
[11]; first compound 0.03162 µM
  relative viability: 0.239
[11]; first compound 0.1 µM
  relative viability: 0.251
[12]; first compound 0.001 µM
  relative viability: 0.483
[12]; first compound 0.003162 µM
  relative viability: 0.584
[12]; first compound 0.01 µM
  relative viability: 0.469
[12]; first compound 0.03162 µM
  relative viability: 0.456
[12]; first compound 0.1 µM
  relative viability: 0.54
[13]; first compound 0.001 µM
  relative viability: 0.189
[13]; first compound 0.003162 µM
  relative viability: 0.322
[13]; first compound 0.01 µM
  relative viability: 0.153
[13]; first compound 0.03162 µM
  relative viability: 0.143
[13]; first compound 0.1 µM
  relative viability: 0.126
[14]; first compound 0.001 µM
  relative viability: 0.319
[14]; first compound 0.01 µM
  relative viability: 0.292
[14]; first compound 0.03162 µM
  relative viability: 0.202
[14]; first compound 0.1 µM
  relative viability: 0.197
[15]; first compound 0.001 µM
  relative viability: 0.249
[15]; first compound 0.003162 µM
  relative viability: 0.303
[15]; first compound 0.03162 µM
  relative viability: 0.157
[15]; first compound 0.1 µM
  relative viability: 0.158
[16]; first compound 0.001 µM
  relative viability: 0.538
[16]; first compound 0.003162 µM
  relative viability: 0.524
[16]; first compound 0.01 µM
  relative viability: 0.476
[16]; first compound 0.03162 µM
  relative viability: 0.613
[16]; first compound 0.1 µM
  relative viability: 0.465
[17]; first compound 0.001 µM
  relative viability: 0.134
[17]; first compound 0.003162 µM
  relative viability: 0.143
[17]; first compound 0.01 µM
  relative viability: 0.13
[17]; first compound 0.03162 µM
  relative viability: 0.116
[17]; first compound 0.1 µM
  relative viability: 0.128
[18]; first compound 0.003162 µM
  relative viability: 0.127
[18]; first compound 0.01 µM
  relative viability: 0.0752
[18]; first compound 0.03162 µM
  relative viability: 0.108
[18]; first compound 0.1 µM
  relative viability: 0.0424
[19]; first compound 0.01 µM
  relative viability: 0.627
[19]; first compound 0.03162 µM
  relative viability: 0.671
[19]; first compound 0.1 µM
  relative viability: 0.596
[20]; first compound 0.001 µM
  relative viability: 0.67
[20]; first compound 0.003162 µM
  relative viability: 0.883
[20]; first compound 0.01 µM
  relative viability: 0.905
[20]; first compound 0.03162 µM
  relative viability: 0.668
[20]; first compound 0.1 µM
  relative viability: 0.712
[21]; first compound 0.001 µM
  relative viability: 0.952
[21]; first compound 0.003162 µM
  relative viability: 0.915
[21]; first compound 0.01 µM
  relative viability: 1.03
[21]; first compound 0.03162 µM
  relative viability: 0.974
[21]; first compound 0.1 µM
  relative viability: 0.9
[22]; first compound 0.001 µM
  relative viability: 0.847
[22]; first compound 0.01 µM
  relative viability: 0.7
[22]; first compound 0.03162 µM
  relative viability: 0.523
[22]; first compound 0.1 µM
  relative viability: 0.591
[23]; first compound 0.001 µM
  relative viability: 0.436
[23]; first compound 0.003162 µM
  relative viability: 0.475
[23]; first compound 0.01 µM
  relative viability: 0.371
[23]; first compound 0.03162 µM
  relative viability: 0.361
[23]; first compound 0.1 µM
  relative viability: 0.385
